{
  "source": "ChEMBL document CHEMBL1144460",
  "about": "“Design, synthesis, and structural analysis of inhibitors of influenza neuraminidase containing a 2,3-disubstituted tetrahydrofuran-5-carboxylic acid core” (Bioorg Med Chem Lett, 2005)",
  "data": [
    {"molecular_target": "Neuraminidase (Influenza B virus (strain B/Lee/1940), UniProt P03474)", "sequence (P03474 whole entry)": "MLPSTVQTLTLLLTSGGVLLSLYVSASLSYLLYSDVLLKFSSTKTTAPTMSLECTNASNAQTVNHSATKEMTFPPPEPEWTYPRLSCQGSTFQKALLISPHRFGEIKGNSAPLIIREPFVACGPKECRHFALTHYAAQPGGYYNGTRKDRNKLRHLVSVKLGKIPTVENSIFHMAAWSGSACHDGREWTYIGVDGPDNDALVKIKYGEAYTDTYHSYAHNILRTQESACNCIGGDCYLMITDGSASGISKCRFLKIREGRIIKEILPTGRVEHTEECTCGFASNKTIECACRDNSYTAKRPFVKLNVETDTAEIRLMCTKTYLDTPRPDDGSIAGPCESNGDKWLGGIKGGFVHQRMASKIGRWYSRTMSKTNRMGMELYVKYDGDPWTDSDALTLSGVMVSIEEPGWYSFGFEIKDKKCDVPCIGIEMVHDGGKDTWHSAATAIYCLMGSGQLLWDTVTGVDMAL", "assay": "Inhibitory concentration of the compound was determined against neuraminidase B (B/Memphis/3/89) of Influenza virus", "units": {"IC50": "nM"}, "values": [
      {"molecule": "CC(=O)N[C@@H](CC(C)C)[C@@H]1O[C@@H](C(=O)O)C[C@H]1c1c[nH]cn1", "IC50": 1000},
      {"molecule": "COC(=O)[C@@H]1C[C@H](C(=O)O)O[C@H]1[C@H](CC(C)C)NC(C)=O", "IC50": 960},
      {"molecule": "COC(=O)[C@@H]1C[C@H](C(=O)O)N[C@H]1[C@H](CC(C)C)NC(C)=O", "IC50": 56}
    ]}
  ]
}
